Laboratory results from US20240131007A1, “METHODS AND COMPOSITIONS FOR PICORNAVIRUS ANTI-VIRAL AGENTS” (University of Connecticut, priority 2022, published 2024).
pIC50: −log10 of the molar value. Like-named read-outs stand apart in the source and are kept apart here.

What was measured:
in vitro = settings: African green monkey; for CC50 at 3 days: CC50 (μM)
EV-A71 = assay: CPE inhibition assay (Cell Titer Glo) against EV-A71 in Vero cells; assay type: cell-based, Enterovirus A71; settings: for pIC50: Enterovirus A, EVA71, EV-A71, Vero cells, read-out: IC50
EV-A71 Δ2C^116-329 = biological target: T1, EV-A71 Δ2C^116-329 (Human enterovirus 71, UniProt Q66478); assay: biochemical; assay type: biochemical
T1 construct: EV-A71 Δ2C (amino acids 116-329) was designed with; made in house; host or cells: E. coli Rosetta 2(DE3) pLysS, pMALc5x vector

[1] = Table 10, Scaffold 1, CC50/IC50
[2] = Table 11, Scaffold 2, CC50/IC50
[3] = Table 12, Scaffold 3, CC50/IC50
[4] = Table 13, Scaffold 4, CC50/IC50

T1 sequence (Q66478 1227-1440, stated change not applied): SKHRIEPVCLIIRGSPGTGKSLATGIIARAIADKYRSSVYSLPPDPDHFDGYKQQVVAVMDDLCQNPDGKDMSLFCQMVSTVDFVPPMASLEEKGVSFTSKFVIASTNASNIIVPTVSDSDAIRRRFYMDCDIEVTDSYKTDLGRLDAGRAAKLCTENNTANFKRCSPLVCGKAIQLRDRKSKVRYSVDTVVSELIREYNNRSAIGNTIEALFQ

Structure (SMILES) | CC50 at 3 days (in vitro) | pIC50 (EV-A71; Table 10, Scaffold 1) | further results
Cc1cccc(C(=O)Nc2ccc(-c3nc4ccccc4[nH]3)cc2)c1 [Compound 12, N-[4-(1H-benzimidazol-2-yl)phenyl]-3-methylbenzamide] | 432 µM | 4.88 | Selectivity Index (EV-A71; [1]): 32.71; pIC50 (EV-A71 Δ2C^116-329): 3.19
O=C(Nc1ccc(-c2nc3ccccc3[nH]2)cc1)c1cc([N+](=O)[O-])ccc1N1CCOCC1 [Compound 19, N-[4-(1H-benzimidazol-2-yl)phenyl]-2-(4-morpholinyl)-5-nitrobenzamide] | 2090 µM | 5.14 | Selectivity Index (EV-A71; [1]): 287.50
O=C(CSCc1ccc([N+](=O)[O-])cc1)Nc1ccc(-c2nc3ccccc3[nH]2)cc1 [Compound 21, N-[4-(1H-benzimidazol-2-yl)phenyl]-2-[(4-nitrobenzyl)thio]acetamide] | > 400 µM | < 4.60 | 
O=C(Nc1ccc(-c2nc3ccccc3[nH]2)cc1)c1ccc(-c2cccc([N+](=O)[O-])c2)o1 [Compound 23, N-[4-(1H-benzimidazol-2-yl)phenyl]-5-(3-nitrophenyl)-2-furamide] | 1.14 µM | < 4.60 | 
O=C(Cc1cccc2ccccc12)Nc1ccc(-c2nc3ccccc3[nH]2)cc1 [Compound 24, N-[4-(1H-benzimidazol-2-yl)phenyl]-2-(1-naphthyl)acetamide] | 58.8 µM | 5.08 | Selectivity Index (EV-A71; [1]): 7.05
O=C(Nc1ccc(-c2nc3ccccc3[nH]2)cc1)c1ccc(-c2ccc(Cl)cc2)o1 [Compound 26, N-[4-(1H-benzimidazol-2-yl)phenyl]-5-(4-chlorophenyl)-2-furamide] | 44.3 µM | 5.24 | Selectivity Index (EV-A71; [1]): 7.77
O=C(Nc1ccc(-c2nc3ccccc3[nH]2)cc1)c1ccc(-c2cccc(Cl)c2)o1 [Compound 27, N-[4-(1H-benzimidazol-2-yl)phenyl]-5-(3-chlorophenyl)-2-furamide] | 67.6 µM | 5.23 | Selectivity Index (EV-A71; [1]): 11.56
CC(=O)Nc1ccc(-c2nc3cc(C)ccc3[nH]2)cc1 [Compound 29, N-[4-(5-methyl-1H-benzimidazol-2-yl)phenyl]acetamide] | > 400 µM | 4.16 | Selectivity Index (EV-A71; [1]): >5.77
CC(=O)Nc1ccc(-c2nc3ccc(Cl)cc3[nH]2)cc1 [Compound 30, N-[4-(6-chloro-1H-benzimidazol-2-yl)phenyl]acetamide] | > 400 µM | < 4.60 | 
Cc1ccc2[nH]c(-c3ccc(NC(=O)C4CC4)cc3)nc2c1 [Compound 31, N-[4-(5-methyl-1H-benzimidazol-2-yl)phenyl]cyclopropanecarboxamide] | > 400 µM | 5.02 | Selectivity Index (EV-A71; [1]): >41.67
CCC(=O)Nc1ccc(-c2nc3ccc(Cl)cc3[nH]2)cc1 [Compound 32, N-[4-(6-chloro-1H-benzimidazol-2-yl)phenyl]propanamide] | > 400 µM | < 4.60 | 
Cc1ccc2[nH]c(-c3ccc(NC(=O)C(C)C)cc3)nc2c1 [Compound 33, 2-methyl-N-[4-(5-methyl-1H-benzimidazol-2-yl)phenyl]propanamide] | 468 µM | 4.93 | Selectivity Index (EV-A71; [1]): 39.46
Cc1ccc2[nH]c(-c3ccc(NC(=O)C(F)(F)F)cc3)nc2c1 [Compound 34, 2,2,2-trifluoro-N-[4-(5-methyl-1H-benzimidazol-2-yl)phenyl]acetamide] | 618 µM | < 4.60 | 
Cc1ccc2[nH]c(-c3ccc(NC(=O)COc4ccccc4)cc3)nc2c1 [Compound 38, N-[4-(5-methyl-1H-benzimidazol-2-yl)phenyl]-2-phenoxyacetamide] | > 400 µM | < 4.60 | 
Cc1ccc2[nH]c(-c3ccc(NC(=O)Cc4ccccc4)cc3)nc2c1 [Compound 39, N-[4-(5-methyl-1H-benzimidazol-2-yl)phenyl]-2-phenylacetamide] | > 400 µM | < 4.60 | 
Cc1ccc(OCC(=O)Nc2ccc(-c3nc4cc(C)ccc4[nH]3)cc2)cc1 [Compound 41, N-[4-(5-methyl-1H-benzimidazol-2-yl)phenyl]-2-(4-methylphenoxy)acetamide] | > 400 µM | < 4.60 | 
O=C(c1ccccc1)c1ccc2[nH]c(-c3ccc(NC(=O)c4ccco4)cc3)nc2c1 [Compound 45, N-[4-(5-benzoyl-1H-benzimidazol-2-yl)phenyl]-2-furamide] | 59.1 µM |  | pIC50 (EV-A71; Table 8, virus-induced CPE): 5.33; Selectivity Index (EV-A71; Table 8, CC50/IC50): 12.56; Selectivity Index (EV-A71; [1]): 12.56
CC(=O)Nc1ccc(-c2nc3cc4ccccc4cc3[nH]2)cc1 [Compound 47, N-[4-(1H-naphtho[2,3-d]imidazol-2-yl)phenyl]acetamide] | 477 µM |  | pIC50 (EV-A71; Table 8, virus-induced CPE): 5.37; Selectivity Index (EV-A71; Table 8, CC50/IC50): 113.08; Selectivity Index (EV-A71; [2]): 113.08

Structure (SMILES) | CC50 at 3 days (in vitro) | pIC50 (EV-A71; Table 10, Scaffold 1) | further results
O=C(CCc1ccccc1)Nc1ccc(-c2nc3cc4ccccc4cc3[nH]2)cc1 [Compound 49, N-[4-(1H-naphtho[2,3-d]imidazol-2-yl)phenyl]-3-phenylpropanamide] | 154 µM |  | pIC50 (EV-A71; Table 11, Scaffold 2): 4.66; Selectivity Index (EV-A71; [2]): 6.99
O=C(Nc1cccc(-c2nc3cc4ccccc4cc3[nH]2)c1)c1ccco1 [Compound 50, N-[3-(1H-naphtho[2,3-d]imidazol-2-yl)phenyl]-2-furamide] | 562 µM |  | pIC50 (EV-A71; Table 11, Scaffold 2): < 4.60
O=C(Nc1ccc2[nH]c(-c3ccccc3)nc2c1)c1ccccc1 [Compound 53, N-(2-phenyl-1H-benzimidazol-5-yl)benzamide] |  |  | CC50 (in vitro): 125 µM; Selectivity Index (EV-A71): 9.43; pIC50 (EV-A71; Table 12, Scaffold 3): 4.88
Cn1cccc1-c1nc2cc(NC(=O)c3ccccc3)ccc2[nH]1 [Compound 54, N-[2-(1-methyl-1H-pyrrol-2-yl)-1H-benzimidazol-5-yl]benzamide] | 33.1 µM |  | pIC50 (EV-A71; Table 12, Scaffold 3): 4.32; Selectivity Index (EV-A71; [3]): 0.69
Cn1cccc1-c1nc2cc(NC(=O)c3cccs3)ccc2[nH]1 [Compound 58, N-[2-(1-methyl-1H-pyrrol-2-yl)-1H-benzimidazol-5-yl]-2-thiophenecarboxamide] | 62.8 µM |  | pIC50 (EV-A71; Table 12, Scaffold 3): 4.63; Selectivity Index (EV-A71; [3]): 2.66
Cc1ccc2[nH]c(-c3ccc(N)cc3)nc2c1 [Compound 59, 4-(5-methyl-1H-benzimidazol-2-yl)aniline] | 189 µM |  | pIC50 (EV-A71; Table 13, Scaffold 4): < 4.60
Cc1ccc(-c2nc3ccccc3[nH]2)cc1NC(=O)c1ccco1 [Compound 60, N-[5-(1H-benzimidazol-2-yl)-2-methylphenyl]-2-furamide] | > 400 µM |  | pIC50 (EV-A71; Table 13, Scaffold 4): < 4.60
Nc1ccc(-c2nc3ccc(Cl)cc3[nH]2)cc1 [Compound 61, 4-(6-chloro-1H-benzimidazol-2-yl)aniline] | 126 µM |  | pIC50 (EV-A71; Table 13, Scaffold 4): 4.29; Selectivity Index (EV-A71; [4]): 2.46
O=C(Nc1cccc(-c2nc3ccccc3[nH]2)c1)c1ccco1 [Compound 62, N-[3-(1H-benzimidazol-2-yl)phenyl]-2-furamide] | 81.5 µM |  | pIC50 (EV-A71; Table 13, Scaffold 4): 4.30; Selectivity Index (EV-A71; [4]): 1.62
Cc1ccc2[nH]c(-c3cccc(NC(=O)c4ccc(Br)o4)c3)nc2c1 [Compound 64, 5-bromo-N-[3-(5-methyl-1H-benzimidazol-2-yl)phenyl]-2-furamide] | 43.8 µM |  | pIC50 (EV-A71; Table 13, Scaffold 4): 4.15; Selectivity Index (EV-A71; [4]): 0.61
c1ccc2[nH]c(-c3ccc(-c4nc5ccccc5[nH]4)cc3)nc2c1 [Compound 65, 2,2′-(1,4-phenylene)bis-1H-benzimidazole] | 379 µM |  | pIC50 (EV-A71; Table 8, virus-induced CPE): 5.66; Selectivity Index (EV-A71; Table 8, CC50/IC50): 174.52; Selectivity Index (EV-A71; [4]): 174.52
Cc1ccc(-c2nc3ccccc3[nH]2)cc1NC(=O)c1cc2ccccc2o1 [Compound 66, N-[5-(1H-benzimidazol-2-yl)-2-methylphenyl]-1-benzofuran-2-carboxamide] | 94.7 µM |  | pIC50 (EV-A71; Table 13, Scaffold 4): 5.07; Selectivity Index (EV-A71; [4]): 11.11
O=C(Nc1cccc(-c2nc3ccccc3[nH]2)c1)c1cc2ccccc2o1 [Compound 67, N-[3-(1H-benzimidazol-2-yl)phenyl]-1-benzofuran-2-carboxamide] | 43 µM |  | pIC50 (EV-A71; Table 13, Scaffold 4): 4.83; Selectivity Index (EV-A71; [4]): 2.89
COc1ccccc1OCC(=O)Nc1ccc(-c2nc3cc(C)ccc3[nH]2)cc1 [Compound T1, 2-(2-methoxyphenoxy)-N-[4-(5-methyl-1H-benzimidazol-2-yl)phenyl]acetamide] | 306 µM |  | pIC50 (EV-A71; Table 6): 5.30; Selectivity Index (EV-A71; Table 6, CC50/IC50): 61.24
COc1cc(C)c(S(=O)(=O)NCCc2c(C)[nH]c3ccccc23)cc1C [Compound T2, 4-methoxy-2,5-dimethyl-N-[2-(2-methyl-1H-indol-3-yl)ethyl]benzenesulfonamide] | 85.4 µM |  | pIC50 (EV-A71; Table 6): 4.77; Selectivity Index (EV-A71; Table 6, CC50/IC50): 5.03
O=C(Nc1ccc2[nH]c(-c3ccc(Br)o3)nc2c1)c1ccccc1 [Compound T4, N-[2-(5-bromo-2-furyl)-1H-benzimidazol-5-yl]benzamide] | > 200 µM |  | pIC50 (EV-A71; Table 6): 4.91; Selectivity Index (EV-A71; Table 6, CC50/IC50): >16.33
COc1ccc(CCNC(=O)C(=O)c2c(-c3ccccc3)[nH]c3ccccc23)cc1OC [Compound T6, N-[2-(3,4-dimethoxyphenyl)ethyl]-2-oxo-2-(2-phenyl-1H-indol-3-yl)acetamide] | > 200 µM |  | pIC50 (EV-A71; Table 6): 4.35; Selectivity Index (EV-A71; Table 6, CC50/IC50): >4.52
